Six compounds from US8410163B2, “Substituted 4-amino-5-benzoyl-2-(phenylamino)thiophene-3-carbonitriles and substituted 4-amino-5-benzoyl-2-(phenylamino)thiophene-3-carboxamides as tubulin polymerization inhibitors” (Telik, Inc., priority 2009, dated 2013) can be followed below.

pIC50: −log10 of the molar value. Like-named read-outs stand apart in the source and are kept apart here.

The test system of assay [1] is OVCAR-3 (human ovarian carcinoma). Nature of the assay: Cytotoxicity assay (CellTiter-Glo), OVCAR-3. Type of assay: cell-based. To be noted: 72 h, OVCAR-3 cells, three days culture, rounded to 1 significant figure. The protocol: (§1) The cell lines A549 (human lung adenocarcinoma), OVCAR-3 (human ovarian carcinoma), HL60 (human promyelocytic leukemia), DLD1 (human colon adenocarcinoma) and HCT116 (human colon carcinoma) were obtained from the American Type Culture Collection, Manassas, Va., U.S.A. All products were used in accordance with manufacturer's directions. The histone phosphorylation (p-H3) assay was conducted in duplicate and the cytotoxicity assays were conducted in triplicate, in each case with solvent control.
(§2) Log-phase cells were trypsinized, collected by centrifugation, and resuspended in a small volume of fresh medium, and the density of viable cells was determined following Trypan Blue staining. Cells were diluted in fresh media, the test compounds (concentrations between 0.1 μM and 200 μM, dissolved in DMSO, 50 μL) added immediately after dilution to achieve a final DMSO concentration of 0.5%, then the suspensions added at 150 μL/well to 96-well plates, and incubated overnight to allow attachment in the case of adherent cells. The cells were cultured for three days (about three doubling times). The cells were then collected by centrifugation, and 100 μL of the culture supernatant was replaced by the CellTiter-Glo reagent. After incubation for 15 minutes at room temperature, the plate was read with a luminometer. […] The table gives cytotoxicity IC50s in μM, rounded to 1 significant figure.
For orientation: In ATP-based viability assays light output follows the ATP content of the culture.

Assay [2] deals with DLD1 (human colon adenocarcinoma). Put plainly: Cytotoxicity assay (CellTiter-Glo), DLD1. The format is cell-based. To be noted: DLD-1, 72 h, DLD1 cells, three days culture, rounded to 1 significant figure. The protocol:
as §1, §2

Assay [3] has as its system HL60 (human promyelocytic leukemia) xenograft. Put plainly: HL60 xenograft assay, oral administration. Type of assay: in vivo. As to conditions: Mus musculus, HL-60, po, nu/nu mice, read-out: inhibition of tumor growth compared to vehicle. The protocol: (§3) Male athymic nu/nu mice, 6-8 weeks old (about 20 g), were implanted subcutaneously in the right fore flank with about 1×10^7 cells of the HL60 (human promyelocytic leukemia) line that had been grown in antibiotic-free medium for at least two passages. About 6 days after tumor implantation, when the tumor weight was about 50-250 mg, the mice were assigned to treatment groups. Test compounds were suspended at 20 mg/mL in 0.55 wt. % aqueous carboxymethylcellulose. Groups of mice were treated with compounds 2A, 9A, and 12A at 200 mg/Kg by gavage once/day on days 1-5 and 8-10 from the start of treatment, with vehicle control. Tumor growth inhibition was measured on the last day of treatment.
The experiment was conducted generally as described in In vivo Example 1. Groups of mice were treated with compounds 5A, 6A, 7A, 8A, and 10A at 200 mg/Kg by gavage once/day on days 1-5 and 8-10 from the start of treatment, with vehicle control. Tumor growth inhibition was measured the day after the last day of treatment.

The subject of assay [4] is HCT116 (human colon carcinoma) xenograft. Put plainly: HCT116 xenograft assay, oral administration. The format is in vivo. As to conditions: nu/nu mice, 200 mg/Kg by gavage once/day days 1-5 and 8-12, measured 2 days after the last day of treatment. On the procedure: as §3, with “the HCT116” for “the HL60”, “(human colon carcinoma)” for “(human promyelocytic leukemia)”, “About 14-21” for “About 6”, “tumor transplantation,” for “tumor implantation,”, “and 8-12” for “and 8-10”, “measured 2 days after” for “measured on”

Assay [5] concerns HCT116 (human colon carcinoma). Nature of the assay: Cytotoxicity assay (CellTiter-Glo), HCT116. Type of assay: cell-based. To be noted: HCT-116, 72 h, HCT116 cells, three days culture, rounded to 1 significant figure. The protocol: as §1, §2
Assay [6] concerns HL60 (human promyelocytic leukemia). Put plainly: Cytotoxicity assay (CellTiter-Glo), HL-60. Type of assay: cell-based. To be noted: 72 h, HL-60 cells, three days culture, rounded to 1 significant figure. On the procedure:
as §1, §2

The next assay has as its system tubulin. Nature of the assay: Inhibition of tubulin polymerization, cell-free fluorescence assay. Type of assay: biochemical.
For assay [7], the system named is A549 (human lung adenocarcinoma). Put plainly: Cytotoxicity assay (CellTiter-Glo), A549. The format is cell-based. As to conditions: 72 h, A549 cells, three days culture, rounded to 1 significant figure. The protocol: as §1, §2
Assay [8] deals with tubulin polymerization in A549 cells. Nature of the assay: Inhibition of tubulin polymerization in A549 cells by immunomicroscopy and cell fractionation. Type of assay: cell-based, human.
The test system of a further assay is p-H3 in A549 cells. Nature of the assay: Histone phosphorylation (p-H3) assay. As to conditions: Homo sapiens, 4 hr incubation, dot-blot. The format is cell-based. On the procedure: as §1
Log phase A549 cells were seeded in a 96-well plate and allowed to attach overnight. The test compounds were diluted in DMSO (8 concentrations with serial 3-fold dilutions) and added to the cells (0.5% DMSO final concentration), and the cells incubated for 4 hr. The cells were then washed three times with cold phosphate-buffered saline (PBS), and lysis buffer was added. After 30 min shaking at 4° C. and centrifugation, the supernatants were transferred to a nitrocellulose membrane by a “dot-blot” apparatus. After washing the wells, the membrane was processed for Western blot. Detection of p-H3 and β-actin was performed on the same membrane with primary rabbit anti-p-H3 and mouse anti-β-actin antibodies followed by secondary goat anti-rabbit IRDye800 and goat anti-mouse AlexaFluor 680 antibodies. The membranes were scanned on an Odyssey scanner.

Where [9] appears, read: 200 mg/Kg by gavage once/day days 1-5 and 8-10, measured on the last day of treatment (In vivo Example 1).

Turning to `CCN(CC)c1ccc(C(=O)c2sc(Nc3ccc4c(c3)OCO4)c(C#N)c2N)cc1` [Compound 9A], the negative-log IC50 (pIC50) (commonly the IC50 on a negative log10 scale, so that one unit is a factor of ten) in assay [1] was 7.70; in assay [2], 7.70; in assay [5] it was 7.40; in assay [6], 7.40; in assay [7], 7.40. For the same compound, the inhibition in vivo at 200 mg/kg in [3] (setting [9]) worked out at 43%. Also, in [4], the “inhibition of tumor growth compared to vehicle” value (from here on “inhibition … compared to vehicle”) is listed as 36%. Besides, the “inhibition of tubulin polymerization (cell-free)” value (“inhibition … (cell-free)” for short) in the assay with tubulin is reported as “inhibition of tubulin polymerization”.
Take `N#Cc1ccc(Nc2sc(C(=O)c3ccc(Cl)cc3)c(N)c2C#N)cc1` [Compound 40A]: the “activity in tubulin polymerization assay in A549 cells” value in assay [8] was “inactive”. This compound also gave a negative logarithm of the IC50 (pIC50) in assay [7] of 5.70.
Regarding `COc1ccc(Nc2sc(C(=O)c3ccc(OC)cc3)c(N)c2C#N)cc1` [Compound 12A], the pIC50 was 7.52 in assay [1]; 7.40 in assay [2]; 7.40 in assay [5]; 7.40 in assay [6]; 7.30 in [7]. Besides, the inhibition in vivo at 200 mg/kg in [3] (setting [9]) amounted to 66%. The “inhibition … compared to vehicle” value in [4] is given as 46%. Also, the “inhibition … (cell-free)” value in the assay on tubulin is listed as “inhibition of tubulin polymerization”.
As for `CCc1ccc(Nc2sc(C(=O)c3ccc(Cl)cc3)c(N)c2C#N)cc1` [Compound 15A, 4-amino-5-(4-chlorobenzoyl)-2-[(4-ethylphenyl)amino]thiophene-3-carbonitrile], the negative-log IC50 (pIC50) was 6.30 with p-H3 in A549 cells, 7.05 in assay [6] and 7.00 in assay [7].
As to `COc1ccc(Nc2sc(C(=O)c3ccc(OC)cc3OC)c(N)c2C#N)cc1` [Compound 7A, 4-amino-5-(2,4-dimethoxybenzoyl)-2-[(4-methoxyphenyl)amino]thiophene-3-carbonitrile], in assay [3] (200 mg/Kg by gavage once/day days 1-5 and 8-10, measured the day after the last day of treatment (In vivo Example 3)), the inhibition in vivo at 200 mg/kg amounted to 45%. In addition, the pIC50 in assay [8] (read-out: IC50, inhibition of tubulin polymerization in A549 cells) was 8.05; in [5] it was 8.00; in assay [6], 7.70; in [7] it was 7.52.
Regarding `COc1ccc(Nc2sc(C(=O)c3ccc(Cl)cc3)c(N)c2C#N)cc1` [Compound 2A], the pIC50 is 7.70 in [1]; 8.22 in [2]; 7.70 with p-H3 in A549 cells; 8.00 in [5]; 8.00 in assay [6]; 8.00 in assay [7]. Moreover, the inhibition in vivo at 200 mg/kg in assay [3] (setting [9]) was 46%. In assay [4], the “inhibition … compared to vehicle” value is 35%. The “inhibition … (cell-free)” value with tubulin is “inhibition of tubulin polymerization”.
